Test results reported in patent US20050014812A1, “Benzimidazole compounds” (Fujisawa Pharmaceutical Co., Ltd., priority 2003, published 2005).

test system: C57BL/KsJ-db/db (db/db) mice; assay: Plasma glucose and triglyceride lowering in db/db mice (Experimental Example 1); type: in vivo; conditions: female db/db mice, 10 mg/kg orally once daily for 7 days, fed state; lean (+m/+m) group = 100% inhibition, db/db control = 0%
Experimental: Female C57BL/KsJ-db/db (db/db) mice and C57BL/KsJ-+m/+m (lean) mice (5 weeks old) were purchased from Jackson Laboratory, and subjected to the test after 1-2 weeks of acclimating period. Animals were maintained on standard laboratory chow and water ad libitum.
Test compound was dissolved or suspended in 0.5% methylcellulose solution and administered orally once a day at a volume of 5 mL/kg of body weight.
• 4-({1-[(3,5-dichloro-2-pyridinyl)methyl]-2,4-dimethyl-1H-benzimidazol-6-yl}oxy)butanoic acid (Example 21) • 4-{[1-(2,4-dichlorobenzyl)-2-ethoxy-4-methyl-1H-benzimidazol-6-yl]oxy}butanoic acid (Example 39) • 2-{[(1-{[3-chloro-5-(trifluoromethyl)-2-pyridinyl]methyl}-2-methyl-1H-benzimidazol-6-yl)oxy]methyl}benzoic acid (Example 75) Test Schedule
At 6 weeks of age, blood was obtained from the retro-orbital sinus by capillary pipette with heparin under feeding condition. Mice were divided into groups matched for body weight, plasma glucose and triglyceride. From 6-7 weeks of age, test compound was administered orally once daily for 7 days. On the next morning of the last administration day, body weight was measured and blood was obtained under feeding condition, and plasma glucose and triglyceride were measured.
Plasma glucose and triglyceride were determined by a mutarotase.glucose oxidase method and a glycerol-3-phosphate oxidase.3,5-dimethoxy-N-ethyl-N-(2′-hydroxy-3′-sulfopropyl)aniline natrium method, respectively, using assay kits from Wako Pure Chemical Industries, Ltd. (Osaka, Japan).
Values of plasma glucose and triglyceride for the lean group (+m/+m) were set as 100% inhibition, and for the control group (db/db) as 0% inhibition. The inhibition rate of plasma glucose and triglyceride for the test group was determined.

| Compound | Inhibition rate of plasma glucose | Inhibition rate of plasma triglyceride |
| --- | --- | --- |
| Cc1nc2ccc(OCc3ccccc3C(=O)O)cc2n1Cc1ncc(C(F)(F)F)cc1Cl [Example 75, 2-{[(1-{[3-chloro-5-(trifluoromethyl)-2-pyridinyl]methyl}-2-methyl-1H-benzimidazol-6-yl)oxy]methyl}benzoic acid] | 72% | 89% |
| Cc1cc(OCCCC(=O)O)cc2c1nc(C)n2Cc1ncc(Cl)cc1Cl [Example 21, 4-({1-[(3,5-dichloro-2-pyridinyl)methyl]-2,4-dimethyl-1H-benzimidazol-6-yl}oxy)butanoic acid] | 41% | 55% |
| CCOc1nc2c(C)cc(OCCCC(=O)O)cc2n1Cc1ccc(Cl)cc1Cl [Example 39, 4-{[1-(2,4-dichlorobenzyl)-2-ethoxy-4-methyl-1H-benzimidazol-6-yl]oxy}butanoic acid] | 45% | 60% |
